One assay concerns the target Cathepsin S (UniProt P25774). As to the kind of experiment: Cathepsin enzyme inhibition assay (fluorogenic peptide substrate Z-Val-Val-Arg-AMC), Cathepsin S. The assay is classed as biochemical, human and mouse. The note with it: enzyme 1 nM, substrate 20 μM, pH 6.5; read-out: CatS IC50. An outline of the steps: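 Human or mouse cathepsin S (1 nM) was run in 100 mM potassium phosphate pH 6.5 with 5 mM EDTA, 0.001% Triton X-100 and 5 mM DTT. The rise in AMC fluorescence from cleavage was measured, and IC50 values were calculated by standard methods and expressed in μM.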

For the next assay, the target named is Cat L (UniProt P07711). As to the kind of experiment: Cathepsin enzyme inhibition assay (fluorogenic peptide substrate Z-Val-Val-Arg-AMC), Cathepsin L. The assay is classed as biochemical, human and mouse. Particulars: enzyme 1 nM, substrate 20 μM, pH 6.5; read-out: CatL IC50. An outline of the steps:
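Cathepsin L at 1 nM was mixed with compound, then started with 20 μM Z-Val-Val-Arg-AMC in pH 6.5 potassium phosphate with EDTA, Triton X-100 and 5 mM DTT. AMC fluorescence (ex 360/em 465 nm) was followed over 20 min. IC50 is given in μM.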

Each structure is given as a SMILES string.

Consider 23 compounds from patent publication US8163793B2, “Proline derivatives” (Hoffman-La Roche Inc., priority 2009, dated 2012).

For the compound `CC(C)(C)c1ccc([C@@H]2N[C@](CCS(=O)(=O)c3ccccc3)(C(=O)NC3(C#N)CC3)C[C@H]2S(=O)(=O)c2ccccc2)cc1` [Example 441, (2S,4R,5S)-5-(4-tert-butylphenyl)-N-(1-cyanocyclopropyl)-4-(phenylsulfonyl)-2-(2-(phenylsulfonyl)ethyl)pyrrolidine-2-carboxamide], the IC50 is 0.0855 µM on Cathepsin S and at least 25 µM on Cat L.
For `N#CC1(NC(=O)[C@@H]2C[C@@H](S(=O)(=O)c3ccccc3Cl)CN2C(=O)C(F)(F)c2ccc(Cl)cc2)CC1` [Example 442, (2S,4R)-4-(2-Chloro-benzenesulfonyl)-1-[2-(4-chloro-phenyl)-2,2-difluoro-acetyl]-pyrrolidine-2-carboxylic acid (1-cyano-cyclopropyl)-amide], in that order: 0.000615 µM and 0.24 µM.
As for `N#CC1(NC(=O)[C@@H]2C[C@@H](S(=O)(=O)c3ccccc3Cl)CN2C(=O)C2(c3ccc(Cl)cc3Cl)CC2)CC1` [Example 443, (2S,4R)-4-(2-Chloro-benzenesulfonyl)-1-[1-(2,4-dichloro-phenyl)-cyclopropanecarbonyl]-pyrrolidine-2-carboxylic acid (1-cyano-cyclopropyl)-amide], the IC50 at Cathepsin S was found to be 0.000605 µM; at Cat L, 0.022 µM.
The like results for `N#CC1(NC(=O)[C@@H]2C[C@@H](S(=O)(=O)c3ccccc3Cl)CN2C(=O)Cc2ccc(Cl)c(F)c2)CC1` [Example 444, (2S,4R)-4-(2-Chloro-benzenesulfonyl)-1-[2-(4-chloro-3-fluoro-phenyl)-acetyl]-pyrrolidine-2-carboxylic acid (1-cyano-cyclopropyl)-amide] were, in that order, 0.000895 µM and 0.26 µM.
Turning to `Cc1cc(N2C[C@H](S(=O)(=O)CC3CC3)C[C@H]2C(=O)NC2(C#N)CC2)n(Cc2ccccc2)n1` [Example 445, (2S,4R)-1-(2-Benzyl-5-methyl-2H-pyrazol-3-yl)-4-cyclopropylmethanesulfonyl-pyrrolidine-2-carboxylic acid (1-cyano-cyclopropyl)-amide], the IC50 is 0.725 µM on Cathepsin S and at least 25 µM at Cat L.
The like results for `N#CC1(NC(=O)[C@@H]2C[C@@H](S(=O)(=O)c3ccccc3Cl)CN2C(=O)C2(c3ccc(Cl)c(F)c3)CC2)CC1` [Example 446, (2S,4R)-4-(2-Chloro-benzenesulfonyl)-1-[1-(4-chloro-3-fluoro-phenyl)-cyclopropanecarbonyl]-pyrrolidine-2-carboxylic acid (1-cyano-cyclopropyl)-amide] were, in that order, 0.000275 µM and 0.0215 µM.
Regarding `CC(C)(C)c1ccc(C2NC(C(=O)NC3(C#N)CC3)CC2S(=O)(=O)c2ccccc2)cc1` (stereo not shown) [Example 447, 4-Benzenesulfonyl-5-(4-tert-butyl-phenyl)-pyrrolidine-2-carboxylic acid (1-cyano-cyclopropyl)-amide], the values for the IC50 on Cathepsin S and at Cat L were 6.13 µM and at least 25 µM, respectively.
For the compound `Cc1cc(N2C[C@H](S(C)(=O)=O)C[C@H]2C(=O)NC2(C#N)CC2)n(CCc2ccccc2)n1` [Example 448, (2S,4R)-4-Methanesulfonyl-1-(5-methyl-2-phenethyl-2H-pyrazol-3-yl)-pyrrolidine-2-carboxylic acid (1-cyano-cyclopropyl)-amide], the results for the IC50 on Cathepsin S and at Cat L were 8.37 µM and at least 25 µM, respectively.
For `Cc1cc(N2C[C@H](S(C)(=O)=O)C[C@H]2C(=O)NC2(C#N)CC2)n(Cc2ccccc2)n1` [Example 449, (2S,4R)-1-(2-Benzyl-5-methyl-2H-pyrazol-3-yl)-4-methanesulfonyl-pyrrolidine-2-carboxylic Acid (1-cyano-cyclopropyl)-amide], in that order: 10.5 µM and at least 25 µM.
For `C=CCOc1ccccc1S(=O)(=O)[C@@H]1C[C@@H](C(=O)NC2(C#N)CC2)N(C(=O)OC(C)(C)C)C1` [Example 450, (2S,4R)-4-(2-Allyloxy-benzenesulfonyl)-2-(1-cyano-cyclopropylcarbamoyl)-pyrrolidine-1-carboxylic acid tert-butyl ester], the IC50 on Cathepsin S was 0.675 µM; on Cat L, at least 25 µM.
The like results for `N#CC1(NC(=O)[C@@H]2C[C@@H](S(=O)(=O)c3ccc(OCC(F)(F)F)cc3C(F)(F)F)CN2C(=O)C2(CO)CC2)CC1` [Example 451, (2S,4R)-1-(1-Hydroxymethyl-cyclopropanecarbonyl)-4-[4-(2,2,2-trifluoro-ethoxy)-2-trifluoromethyl-benzenesulfonyl]-pyrrolidine-2-carboxylic acid (1-cyano-cyclopropyl)-amide] were, in that order, 0.000758 µM and 6.38 µM.
For `N#CC1(NC(=O)[C@@H]2C[C@@H](S(=O)(=O)c3ccccc3Cl)CN2C(=O)C2(CO)CC2)CC1` [Example 452, (2S,4R)-4-(2-Chloro-benzenesulfonyl)-1-(1-hydroxymethyl-cyclopropanecarbonyl)-pyrrolidine-2-carboxylic acid (1-cyano-cyclopropyl)-amide], in that order: 0.00117 µM and 7.93 µM.
The like results for `C=CCOc1ccccc1S(=O)(=O)[C@H]1CN[C@H](C(=O)NC2(C#N)CC2)C1` [Example 453, (2S,4R)-4-(2-Allyloxy-benzenesulfonyl)-pyrrolidine-2-carboxylic acid (1-cyano-cyclopropyl)-amide] were, in that order, 0.845 µM and at least 25 µM.
For `CC1(C(=O)N2C[C@H](S(=O)(=O)CC3CC3)C[C@H]2C(=O)NC2(C#N)CC2)CC1` [Example 454, (2S,4R)-4-Cyclopropylmethanesulfonyl-1-(1-methyl-cyclopropanecarbonyl)-pyrrolidine-2-carboxylic acid (1-cyano-cyclopropyl)-amide], the 50% inhibitory concentration (IC50) at Cathepsin S was 1.66 µM; at Cat L, at least 25 µM.
For `C=CCN[C@@H](C(=O)N1C[C@H](S(=O)(=O)c2ccccc2OCC=C)C[C@H]1C(=O)NC1(C#N)CC1)c1ccc(Cl)cc1` [Example 455, (2S,4R)-1-[(R)-2-Allylamino-2-(4-chloro-phenyl)-acetyl]-4-(2-allyloxy-benzenesulfonyl)-pyrrolidine-2-carboxylic acid (1-cyano-cyclopropyl)-amide], in that order: 0.077 µM and at least 25 µM.
As to `Cc1cc(N2C[C@H](S(=O)(=O)c3ccc(N4CC(F)(F)C4)cc3Cl)C[C@H]2C(=O)NC2(C#N)CC2)n(C2CCC2)n1` [Example 456, (2S,4R)-4-(2-chloro-4-(3,3-difluoroazetidin-1-yl)phenylsulfonyl)-N-(1-cyanocyclopropyl)-1-(1-cyclobutyl-3-methyl-1H-pyrazol-5-yl)pyrrolidine-2-carboxamide], the results for the IC50 on Cathepsin S and at Cat L were 0.000725 µM and 3.99 µM, respectively.
The like results for `N#CC1(NC(=O)[C@@H]2C[C@@H](S(=O)(=O)c3ccccc3)CN2C(=O)C2(c3ccc(Cl)cc3)CC2)CC1` [Example 457, (2S,4R)-1-(1-(4-chlorophenyl)cyclopropanecarbonyl)-N-(1-cyanocyclopropyl)-4-(phenylsulfonyl)pyrrolidine-2-carboxamide] were, in that order, 34 µM and 0.53 µM.
For the compound `N#CC1(NC(=O)[C@@H]2C[C@@H](S(=O)(=O)c3ccccc3Cl)CN2C(=O)C2(c3ccc(I)cc3)CC2)CC1` [Example 459, (2S,4R)-4-(2-Chloro-benzenesulfonyl)-1-[1-(4-iodo-phenyl)-cyclopropanecarbonyl]-pyrrolidine-2-carboxylic acid (1-cyano-cyclopropyl)-amide], the IC50 stood at 0.000505 µM at Cathepsin S and 0.0065 µM at Cat L.
The like results for `COc1cc(C2(C(=O)N3C[C@H](S(=O)(=O)c4ccccc4Cl)C[C@H]3C(=O)NC3(C#N)CC3)CC2)c(Cl)cc1Cl` [Example 460, (2S,4R)-4-(2-Chloro-benzenesulfonyl)-1-[1-(2,4-dichloro-5-methoxy-phenyl)-cyclopropanecarbonyl]-pyrrolidine-2-carboxylic acid (1-cyano-cyclopropyl)-amide] were, in that order, 0.00585 µM and 0.0525 µM.
On to `N#CC1(NC(=O)[C@@H]2C[C@@H](S(=O)(=O)c3ccccc3Cl)CN2C(=O)C2(c3cc(F)c(Cl)cc3Cl)CC2)CC1` [Example 461, (2S,4R)-4-(2-Chloro-benzenesulfonyl)-1-[1-(2,4-dichloro-5-fluoro-phenyl)-cyclopropanecarbonyl]-pyrrolidine-2-carboxylic acid (1-cyano-cyclopropyl)-amide], for which the values for the IC50 at Cathepsin S and on Cat L were 0.000985 µM and 0.0225 µM, respectively.
With `Cc1cc(N2C[C@H](S(C)(=O)=O)C[C@H]2C(=O)NC2(C#N)CC2)n(-c2ccc(C(F)(F)F)cc2)n1` [Example 462, (2S,4R)-4-Methanesulfonyl-1-[5-methyl-2-(4-trifluoromethyl-phenyl)-2H-pyrazol-3-yl]-pyrrolidine-2-carboxylic acid (1-cyano-cyclopropyl)-amide], the IC50 at Cathepsin S is 9.49 µM; at Cat L it was above 25 µM.
The like results for `Cc1cc(N2C[C@H](S(C)(=O)=O)C[C@H]2C(=O)NC2(C#N)CC2)n(-c2ccnc(Cl)c2)n1` [Example 463, (2S,4R)-1-[2-(2-Chloro-pyridin-4-yl)-5-methyl-2H-pyrazol-3-yl]-4-methanesulfonyl-pyrrolidine-2-carboxylic acid (1-cyano-cyclopropyl)-amide] were, in that order, 5.13 µM and above 25 µM.
The like results for `Cc1cc(N2C[C@H](S(=O)(=O)c3ccc(N4CC(F)(F)C4)cc3Cl)C[C@H]2C(=O)NC2(C#N)CC2)n(C2CCOCC2)n1` [Example 464, (2S,4R)-4-(2-chloro-4-(3,3-difluoroazetidin-1-yl)phenylsulfonyl)-N-(1-cyanocyclopropyl)-1-(3-methyl-1-(tetrahydro-2H-pyran-4-yl)-1H-pyrazol-5-yl)pyrrolidine-2-carboxamide] were, in that order, 0.00115 µM and 3.02 µM.
